The term EC50 denotes the concentration needed to bring the measured effect to its halfway point.

In US11013726B2 (Arbutus Biopharma Corporation, priority 2016, dated 2021) one finds EC50 data, which are given here for 31 compounds.

The subject of the experiment is HBsAg. Nature of the experiment: HBsAg assay. The class given is cell-based, hepatitis B virus. The note with it: Hepatitis B virus, HepG2.2.15, 144 h, read-out: sAg EC50, μM, HepG2.2.15 cells, day 6. The procedure, abridged:
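HepG2.2.15 cells were treated with serially diluted compounds (0.5% DMSO), with medium and compound renewed after 2-3 days. Secreted HBsAg measured at day 6 by chemiluminescence immunoassay; EC50 from dose-response curves. Viability assessed in parallel by CellTiter-Glo.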

Consider `COCCCOc1cc2c(nc1Cl)-c1cc(=O)c(C(=O)O)cn1C1C(CCC1(C)C)O2` (stereo not shown) [Example 81, 6-Chloro-7-(3-methoxypropoxy)-12,12-dimethyl-3-oxo-9a,11,12,12a-tetrahydro-3H,10H-cyclopenta[b]dipyrido[1,2-d:2′,3′-f][1,4]oxazepine-2-carboxylic acid], for which the EC50 was determined as 0.011 µM.
For `CC(C)C1Cc2sccc2-c2cc(=O)c(C(=O)O)cn21` (stereo not shown) [Example 84, 5-Isopropyl-9-oxo-4,9-dihydro-5H-thieno[3,2-a]quinolizine-8-carboxylic acid] the value was 3.2 µM; for `CC(C)C1Cc2sc(Cl)cc2-c2cc(=O)c(C(=O)O)cn21` (stereo not shown) [Example 85, 2-Chloro-5-isopropyl-9-oxo-4,9-dihydro-5H-thieno[3,2-a]quinolizine-8-carboxylic acid], 16 µM.
For `COc1cc2c(cn1)-c1cc(=O)c(C(=O)O)cn1C(C(C)C)C2` (stereo not shown) [Example 86, 6-isopropyl-3-methoxy-10-oxo-5,10-dihydro-6H-pyrido[2,1-a][2,7]naphthyridine-9-carboxylic acid] the value was 1 µM.
For `COc1nc2c(s1)CC(C(C)C)n1cc(C(=O)O)c(=O)cc1-2` (stereo not shown) [Example 87, 5-Isopropyl-2-methoxy-9-oxo-4,9-dihydro-5H-thiazolo[4,5-a]quinolizine-8-carboxylic acid], the EC50 was 3.8 µM.
For `COCc1nc2c(s1)CC(C(C)C)n1cc(C(=O)O)c(=O)cc1-2` (stereo not shown) [Example 88, 5-Isopropyl-2-(methoxymethyl)-9-oxo-4,9-dihydro-5H-thiazolo[4,5-a]quinolizine-8-carboxylic acid] the value was 3.1 µM; for `CC(C)(C)C1Cc2cc3c(cc2-c2cc(=O)c(C(=O)O)cn21)OCCCO3` (stereo not shown) [Example 90, 6-(Tert-butyl)-2-oxo-6,7,11,12-tetrahydro-2H,10H-[1,4]dioxepino[2,3-g]pyrido[2,1-a]isoquinoline-3-carboxylic acid], 0.095 µM; for `CC(C)(C)C1Cc2cc3c(cc2-c2cc(=O)c(C(=O)O)cn21)OCC1(COC1)CO3` (stereo not shown) [Example 93, 6′-(Tert-butyl)-2′-oxo-6′,7′-dihydro-2′H,10′H,12′H-spiro[oxetane-3,11′-[1,4]dioxepino[2,3-g]pyrido[2,1-a]isoquinoline]-3′-carboxylic acid], 0.42 µM.
For `COCC1COc2cc3c(cc2OC1)-c1cc(=O)c(C(=O)O)cn1C(C(C)(C)C)C3` (stereo not shown) [Example 96, 6-(Tert-butyl)-11-(methoxymethyl)-2-oxo-6,7,11,12-tetrahydro-2H,10H-[1,4]dioxepino[2,3-g]pyrido[2,1-a]isoquinoline-3-carboxylic acid] the value was 0.14 µM.
On to `COCCOC1COc2cc3c(cc2OC1)-c1cc(=O)c(C(=O)O)cn1C(C(C)(C)C)C3` (stereo not shown) [Example 97, 6-(Tert-butyl)-11-(2-methoxyethoxy)-2-oxo-6,7,11,12-tetrahydro-2H,10H-[1,4]dioxepino[2,3-g]pyrido[2,1-a]isoquinoline-3-carboxylic acid], for which the EC50 came to 1.4 µM.
Turning to `C=C1COc2cc3c(cc2OC1)-c1cc(=O)c(C(=O)O)cn1C(C(C)(C)C)C3` (stereo not shown) [Example 98, 6-(Tert-butyl)-11-methylene-2-oxo-6,7,11,12-tetrahydro-2H,10H-[1,4]dioxepino[2,3-g]pyrido[2,1-a]isoquinoline-3-carboxylic acid], the EC50 amounted to 0.1 µM.
For `COCC1(COC)COc2cc3c(cc2OC1)-c1cc(=O)c(C(=O)O)cn1C(C(C)(C)C)C3` (stereo not shown) [Example 99, 6-(Tert-butyl)-11,11-bis(methoxymethyl)-2-oxo-6,7,11,12-tetrahydro-2H,10H-[1,4]dioxepino[2,3-g]pyrido[2,1-a]isoquinoline-3-carboxylic] the value was 0.49 µM; for `Cc1c2n(cc(C(=O)O)c1=O)C(C(C)(C)C)Cc1cc3c(cc1-2)OCCCO3` (stereo not shown) [Example 100, 6-(Tert-butyl)-1-methyl-2-oxo-6,7,11,12-tetrahydro-2H,10H-[1,4]dioxepino[2,3-g]pyrido[2,1-a]isoquinoline-3-carboxylic acid], 10 µM; for `C=C1COc2cc3c(cc2OC1)-c1cc(=O)c(CO)cn1C(C(C)(C)C)C3` (stereo not shown) [Example 101, 6-(Tert-butyl)-3-(hydroxymethyl)-1-methylene-6,7,11,12-tetrahydro-2H,10H-[1,4]dioxepino[2,3-g]pyrido[2,1-a]isoquinolin-2-one], 5.8 µM.
For `COC1COc2cc3c(cc2OC1)-c1cc(=O)c(C(=O)O)cn1C(C(C)(C)C)C3` (stereo not shown) [Example 102, 6-(Tert-butyl)-11-methoxy-2-oxo-6,7,11,12-tetrahydro-2H,10H-[1,4]dioxepino[2,3-g]pyrido[2,1-a]isoquinoline-3-carboxylic acid] the value was 0.18 µM; for `CC(C)(C)C1Cc2cc3c(cc2-c2cc(=O)c(C(=O)O)cn21)OCC(O)CO3` (stereo not shown) [Example 103, 6-(Tert-butyl)-11-hydroxy-2-oxo-6,7,11,12-tetrahydro-2H,10H-[1,4]dioxepino[2,3-g]pyrido[2,1-a]isoquinoline-3-carboxylic acid], 0.05 µM; for `COc1nc2c(cc1Cl)-c1cc(=O)c(C(=O)O)cn1C(C(C)C)CO2` (stereo not shown) [Example 104, 2-Chloro-7-isopropyl-3-methoxy-11-oxo-6,7-dihydro-11H-dipyrido[1,2-d:3′,2′-f][1,4]oxazepine-10-carboxylic acid], 24.2 µM.
For `CCOP(=O)(OCC)c1cn2c(cc1=O)-c1cc(Cl)c(OCCCOC)cc1CC2C(C)(C)C` (stereo not shown) [Example 105, Diethyl (6-(tert-butyl)-10-chloro-9-(3-methoxypropoxy)-2-oxo-6,7-dihydro-2H-pyrido[2,1-a]isoquinolin-3-yl)phosphonate] the value was 6.1 µM.
Turning to `CCOP(=O)(O)c1cn2c(cc1=O)-c1cc(Cl)c(OCCCOC)cc1CC2C(C)(C)C` (stereo not shown) [Example 106, Ethyl hydrogen (6-(tert-butyl)-10-chloro-9-(3-methoxypropoxy)-2-oxo-6,7-dihydro-2H-pyrido[2,1-a]isoquinolin-3-yl)phosphonate], the EC50 amounted to 7.2 µM.
As to `COCCCOc1cc2c(cc1Cl)-c1cc(=O)c(P(=O)(O)O)cn1C(C(C)(C)C)C2` (stereo not shown) [Example 107, (6-(Tert-butyl)-10-chloro-9-(3-methoxypropoxy)-2-oxo-6,7-dihydro-2H-pyrido[2,1-a]isoquinolin-3-yl)phosphonic acid], the EC50 is 2.5 µM.
Turning to `COCCCOc1cc2c(nc1OC)-c1cc(=O)c(-c3nnc(C)s3)cn1[C@H](C(C)C)C2` [Example 108, (S)-6-Isopropyl-2-methoxy-3-(3-methoxypropoxy)-9-(5-methyl-1,3,4-thiadiazol-2-yl)-5,6-dihydro-10H-pyrido[1,2-h][1,7]naphthyridin-10-one], the EC50 stood at 0.045 µM.
Consider `COCCCOc1cc2c(nc1OC)-c1cc(=O)c(-c3n[nH]c(=S)[nH]3)cn1[C@H](C(C)C)C2` [Example 109, (S)-6-Isopropyl-2-methoxy-3-(3-methoxypropoxy)-9-(5-thioxo-4,5-dihydro-1H-1,2,4-triazol-3-yl)-5,6-dihydro-10H-pyrido[1,2-h][1,7]naphthyridin-10-one], for which the EC50 was 0.029 µM.
For `COCCCOc1cc2c(nc1OC)-c1cc(=O)c(-c3nnco3)cn1[C@H](C(C)C)C2` [Example 110, (S)-6-Isopropyl-2-methoxy-3-(3-methoxypropoxy)-9-(1,3,4-oxadiazol-2-yl)-5,6-dihydro-10-pyrido[1,2-h][1,7]naphthyridin-10-one] the value was 0.057 µM; for `COCCCOc1cc2c(nc1OC)-c1cc(=O)c(-c3nc(C)no3)cn1[C@H](C(C)C)C2` [Example 111, (S)-6-isopropyl-2-methoxy-3-(3-methoxypropoxy)-9-(3-methyl-1,2,4-oxadiazol-5-yl)-5,6-dihydro-10H-pyrido[1,2-h][1,7]naphthyridin-10-one], 0.29 µM; for `COCCCOc1cc2c(nc1OC)-c1cc(=O)c(-c3nc(-c4ccccc4)no3)cn1[C@H](C(C)C)C2` [Example 112, (S)-6-Isopropyl-2-methoxy-3-(3-methoxypropoxy)-9-(3-phenyl-1,2,4-oxadiazol-5-yl)-5,6-dihydro-10H-pyrido[1,2-h][1,7]naphthyridin-10-one], 0.87 µM.
With `COCCCOc1cc2c(nc1OC)-c1cc(=O)c(C#N)cn1[C@H](C(C)C)C2` [Example 113, (S)-6-Isopropyl-2-methoxy-3-(3-methoxypropoxy)-10-oxo-5,10-dihydro-6H-pyrido[1,2-h][1,7]naphthyridine-9-carbonitrile], the EC50 was 1 µM.
For `COCCCOc1cc2c(cc1Cl)-c1cc(=O)c(-n3nn[nH]c3=O)cn1C(C(C)(C)C)C2` (stereo not shown) [Example 114, 6-(Tert-butyl)-10-chloro-9-(3-methoxypropoxy)-3-(5-oxo-4,5-dihydro-1H-tetrazol-1-yl)-6,7-dihydro-2H-pyrido [2,1-a]isoquinolin-2-one] the value was 3 µM; for `COCCCOc1cc2c(nc1OC)-c1cc(=O)c(-c3nnn[nH]3)cn1[C@H](C(C)C)C2` [Example 115, (S)-6-Isopropyl-2-methoxy-3-(3-methoxypropoxy)-9-(1H-tetrazol-5-yl)-5,6-dihydro-10H-pyrido[1,2-h][1,7]naphthyridin-10-one], 0.09 µM.
As to `COCCCOc1cc2c(nc1OC)-c1cc(=O)c(-c3ncn[nH]3)cn1[C@H](C(C)C)C2` [Example 116, (S)-6-Isopropyl-2-methoxy-3-(3-methoxypropoxy)-9-(1H-1,2,4-triazol-5-yl)-5,6-dihydro-10H-pyrido[1,2-h][1,7]naphthyridin-10-one], the EC50 is 0.009 µM.
For `COCCCOc1cc2c(nc1OC)-c1cc(=O)c(C(=O)NO)cn1[C@H](C(C)C)C2` [Example 117, (S)—N-Hydroxy-6-isopropyl-2-methoxy-3-(3-methoxypropoxy)-10-oxo-5,10-dihydro-6H-pyrido[1,2-h][1,7]naphthyridine-9-carboxamide] the value was 0.054 µM; for `COCCCOc1cc2c(nc1OC)-c1cc(=O)c(C(=O)NS(C)(=O)=O)cn1[C@H](C(C)C)C2` [Example 118, (S)-6-Isopropyl-2-methoxy-3-(3-methoxypropoxy)-N-(methylsulfonyl)-10-oxo-5,10-dihydro-6H-pyrido[1,2-h][1,7]naphthyridine-9-carboxamide], 0.051 µM.
